# From patent publication US20240239752A1, “BICYCLIC HETEROAROMATIC INHIBITORS OF KLK5” (BioCryst Pharmaceuticals, Inc., priority 2021, published 2024)
# Biological target: T1, recombinant human KLK5 (Homo sapiens, UniProt Q9Y337)
# T1 construct: purchased Novoprotein or R&D Systems C415 or 1108-SE
# T1 sequence (Q9Y337 23-293): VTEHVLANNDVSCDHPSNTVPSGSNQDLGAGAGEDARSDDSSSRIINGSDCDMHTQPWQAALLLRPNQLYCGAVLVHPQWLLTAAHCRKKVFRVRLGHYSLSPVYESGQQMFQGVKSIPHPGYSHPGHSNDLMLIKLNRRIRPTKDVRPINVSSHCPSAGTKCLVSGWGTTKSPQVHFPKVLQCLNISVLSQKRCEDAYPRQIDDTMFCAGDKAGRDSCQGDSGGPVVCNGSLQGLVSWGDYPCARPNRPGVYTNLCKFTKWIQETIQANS
# Assay: Kallikrein (KLK) 5 enzymatic assay (Boc-VPR-AMC fluorogenic substrate)
# Assay type: biochemical
# Conditions: recombinant human KLK5 0.1 μg/well, Boc-VPR-AMC 100 μM, pH 7.5, room temperature, 1% DMSO; tested a minimum of three times
# Summary of the method: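 Recombinant human KLK5 (0.1 μg/well) was preincubated with compound at room temperature in 0.1 M NaH2PO4, pH 7.5, 1% DMSO, then started with 100 μM Boc-VPR-AMC. The rate was followed at 380/460 nm, and IC50 came from percent inhibition relative to enzyme alone, with at least three runs.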
row,IC50,SMILES
1,< 1000 nM,"Nc1nccc2c(-c3ccc4c(c3)C(Oc3ccccc3CC(=O)O)CC43CCCC3)cccc12 (stereo not drawn) [Compound 354f, 2-(2-((5′-(1-aminoisoquinolin-5-yl)-2′,3′-dihydrospiro[cyclopentane-1,1′-inden]-3′-yl)oxy)phenyl)acetic acid]"
2,< 1000 nM,"Nc1nccc2ccc(-c3ccc4c(c3)C(Oc3ccccc3CC(=O)O)CC43CCCC3)cc12 (stereo not drawn) [Compound 355b, 2-(2-((5′-(1-aminoisoquinolin-7-yl)-2′,3′-dihydrospiro[cyclopentane-1,1′-inden]-3′-yl)oxy)phenyl)acetic acid]"
3,< 1000 nM,"CCOC(=O)N1CC[C@H](n2nc(COc3cccc(C4CC4)c3CC(=O)O)c3cc(-c4ccc5ccnc(N)c5c4)ccc32)C1 [Compound 356e, (S)-2-(2-((5-(1-aminoisoquinolin-7-yl)-1-(1-(ethoxycarbonyl)pyrrolidin-3-yl)-1H-indazol-3-yl)methoxy)-6-cyclopropylphenyl)acetic acid]"
4,< 1000 nM,"CCOC(=O)N1CC[C@H](n2nc(COc3cccc(C4CC4)c3CC(=O)O)c3cc(-c4cccc5c(N)nccc45)ccc32)C1 [Compound 357b, (S)-2-(2-((5-(1-aminoisoquinolin-5-yl)-1-(1-(ethoxycarbonyl)pyrrolidin-3-yl)-1H-indazol-3-yl)methoxy)-6-cyclopropylphenyl)acetic acid]"
5,< 1000 nM,"CC(C)OC(=O)N1CC[C@H](n2nc(COc3ccccc3CC(=O)O)c3cc(-c4ccc5ccnc(N)c5c4)ccc32)C1 [Compound 358c, (S)-2-(2-((5-(1-aminoisoquinolin-7-yl)-1-(1-(isopropoxycarbonyl)pyrrolidin-3-yl)-1H-indazol-3-yl)methoxy)phenyl)acetic acid]"
6,< 1000 nM,"CC(C)OC(=O)N1CC[C@H](n2nc(COc3ccccc3CC(=O)O)c3cc(-c4cccc5c(N)nccc45)ccc32)C1 [Compound 359b, (S)-2-(2-((5-(1-aminoisoquinolin-5-yl)-1-(1-(isopropoxycarbonyl)pyrrolidin-3-yl)-1H-indazol-3-yl)methoxy)phenyl)acetic acid]"
7,< 1000 nM,"CC(C)OC(=O)N1CC[C@@H](n2nc(COc3ccccc3CC(=O)O)c3cc(-c4ccc5ccnc(N)c5c4)ccc32)C1 [Compound 362c, (R)-2-(2-((5-(1-aminoisoquinolin-7-yl)-1-(1-(isopropoxycarbonyl)pyrrolidin-3-yl)-1H-indazol-3-yl)methoxy)phenyl)acetic acid]"
8,< 1000 nM,"CC(C)OC(=O)N1CC[C@@H](n2nc(COc3ccccc3CC(=O)O)c3cc(-c4cccc5c(N)nccc45)ccc32)C1 [Compound 363b, (R)-2-(2-((5-(1-aminoisoquinolin-5-yl)-1-(1-(isopropoxycarbonyl)pyrrolidin-3-yl)-1H-indazol-3-yl)methoxy)phenyl)acetic acid]"
9,< 1000 nM,"Cc1cccc(OC2CC3(CCCC3)c3ccc(-c4cccc5c(N)nccc45)cc32)c1CC(=O)O (stereo not drawn) [Compound 366c, 2-(2-((5′-(1-aminoisoquinolin-5-yl)-2′,3′-dihydrospiro[cyclopentane-1,1′-inden]-3′-yl)oxy)-6-methylphenyl)acetic acid]"
10,< 1000 nM,"Cc1cccc(OC2CC3(CCCC3)c3ccc(-c4ccc5ccnc(N)c5c4)cc32)c1CC(=O)O (stereo not drawn) [Compound 367b, 2-(2-((5′-(1-aminoisoquinolin-7-yl)-2′,3′-dihydrospiro[cyclopentane-1,1′-inden]-3′-yl)oxy)-6-methylphenyl)acetic acid]"
11,< 1000 nM,"COC(=O)N1CCC2(CC1)CC(Oc1ccccc1CC(=O)O)c1cc(-c3ccc4ccnc(N)c4c3)ccc12 (stereo not drawn) [Compound 370c, 2-(2-((5-(1-aminoisoquinolin-7-yl)-1′-(methoxycarbonyl)-2,3-dihydrospiro[indene-1,4′-piperidin]-3-yl)oxy)phenyl)acetic acid]"
12,< 1000 nM,"COC(=O)N1CCC2(CC1)CC(Oc1ccccc1CC(=O)O)c1cc(-c3cccc4c(N)nccc34)ccc12 (stereo not drawn) [Compound 371b, 2-(2-((5-(1-aminoisoquinolin-5-yl)-1′-(methoxycarbonyl)-2,3-dihydrospiro[indene-1,4′-piperidin]-3-yl)oxy)phenyl)acetic acid]"
13,< 1000 nM,"CCOC(=O)N1CCC2(CC1)CC(Oc1ccccc1CC(=O)O)c1cc(-c3cccc4c(N)nccc34)ccc12 (stereo not drawn) [Compound 372b, 2-(2-((5-(1-aminoisoquinolin-5-yl)-1′-(ethoxycarbonyl)-2,3-dihydrospiro[indene-1,4′-piperidin]-3-yl)oxy)phenyl)acetic acid]"
14,< 1000 nM,"CC(C)OC(=O)N1CCC2(CC1)CC(Oc1ccccc1CC(=O)O)c1cc(-c3ccc4ccnc(N)c4c3)ccc12 (stereo not drawn) [Compound 374c, 2-(2-((5-(1-aminoisoquinolin-7-yl)-1′-(isopropoxycarbonyl)-2,3-dihydrospiro[indene-1,4′-piperidin]-3-yl)oxy)phenyl)acetic acid]"
15,< 1000 nM,"CC(C)OC(=O)N1CCC2(CC1)CC(Oc1ccccc1CC(=O)O)c1cc(-c3cccc4c(N)nccc34)ccc12 (stereo not drawn) [Compound 375b, 2-(2-((5-(1-aminoisoquinolin-5-yl)-1′-(isopropoxycarbonyl)-2,3-dihydrospiro[indene-1,4′-piperidin]-3-yl)oxy)phenyl)acetic acid]"
16,< 1000 nM,"Nc1nccc2c(-c3ccc4c(c3)C(Oc3ccccc3CC(=O)O)CC43CCCCC3)cccc12 (stereo not drawn) [Compound 376f, 2-(2-((5′-(1-aminoisoquinolin-5-yl)-2′,3′-dihydrospiro[cyclohexane-1,1′-inden]-3′-yl)oxy)phenyl)acetic acid]"
17,< 1000 nM,"Cc1cccc(OC2CC3(CCCCC3)c3ccc(-c4cccc5c(N)nccc45)cc32)c1CC(=O)O (stereo not drawn) [Compound 377c, 2-(2-((5′-(1-aminoisoquinolin-5-yl)-2′,3′-dihydrospiro[cyclohexane-1,1′-inden]-3′-yl)oxy)-6-methylphenyl)acetic acid]"
18,< 1000 nM,"Cc1cccc(OC2CC3(CCCCC3)c3ccc(-c4ccc5ccnc(N)c5c4)cc32)c1CC(=O)O (stereo not drawn) [Compound 378b, 2-(2-((5′-(1-aminoisoquinolin-7-yl)-2′,3′-dihydrospiro[cyclohexane-1,1′-inden]-3′-yl)oxy)-6-methylphenyl)acetic acid]"
19,< 1000 nM,"COC(=O)N1CCC2(CC1)CC(Oc1cccc(C)c1CC(=O)O)c1cc(-c3ccc4ccnc(N)c4c3)ccc12 (stereo not drawn) [Compound 381e, 2-(2-((5-(1-aminoisoquinolin-7-yl)-1′-(methoxycarbonyl)-2,3-dihydrospiro[indene-1,4′-piperidin]-3-yl)oxy)-6-methylphenyl)acetic acid]"
20,< 1000 nM,"COC(=O)N1CCC2(CC1)CC(Oc1cccc(C)c1CC(=O)O)c1cc(-c3cccc4c(N)nccc34)ccc12 (stereo not drawn) [Compound 382b, 2-(2-((5-(1-aminoisoquinolin-5-yl)-1′-(methoxycarbonyl)-2,3-dihydrospiro[indene-1,4′-piperidin]-3-yl)oxy)-6-methylphenyl)acetic acid]"
21,< 1000 nM,"Cc1cccc(OC2CC3(CCN(C(=O)OC(C)C)CC3)c3ccc(-c4ccc5ccnc(N)c5c4)cc32)c1CC(=O)O (stereo not drawn) [Compound 383c, 2-(2-((5-(1-aminoisoquinolin-7-yl)-1′-(isopropoxycarbonyl)-2,3-dihydrospiro[indene-1,4′-piperidin]-3-yl)oxy)-6-methylphenyl)acetic acid]"
22,< 1000 nM,"Cc1cccc(OC2CC3(CCN(C(=O)OC(C)C)CC3)c3ccc(-c4cccc5c(N)nccc45)cc32)c1CC(=O)O (stereo not drawn) [Compound 384b, 2-(2-((5-(1-aminoisoquinolin-5-yl)-1′-(isopropoxycarbonyl)-2,3-dihydrospiro[indene-1,4′-piperidin]-3-yl)oxy)-6-methylphenyl)acetic acid]"
23,< 1000 nM,"CCC(=O)N1CCC2(CC1)CC(Oc1ccccc1CC(=O)O)c1cc(-c3cccc4c(N)nccc34)ccc12 (stereo not drawn) [Compound 385c, 2-(2-((5-(1-aminoisoquinolin-5-yl)-1′-propionyl-2,3-dihydrospiro[indene-1,4′-piperidin]-3-yl)oxy)phenyl)acetic acid]"

row,SMILES,IC50
1,"CC(C)COC(=O)N1CC[C@H](n2nc(COc3ccccc3CC(=O)O)c3cc(-c4ccc5ccnc(N)c5c4)ccc32)C1 [Compound 360c, (S)-2-(2-((5-(1-aminoisoquinolin-7-yl)-1-(1-(isobutoxycarbonyl)pyrrolidin-3-yl)-1H-indazol-3-yl)methoxy)phenyl)acetic acid]",< 1000 nM
2,"CC(C)COC(=O)N1CC[C@H](n2nc(COc3ccccc3CC(=O)O)c3cc(-c4cccc5c(N)nccc45)ccc32)C1 [Compound 361b, (S)-2-(2-((5-(1-aminoisoquinolin-5-yl)-1-(1-(isobutoxycarbonyl)pyrrolidin-3-yl)-1H-indazol-3-yl)methoxy)phenyl)acetic acid]",< 1000 nM
3,"CC(C)COC(=O)N1CC[C@@H](n2nc(COc3ccccc3CC(=O)O)c3cc(-c4ccc5ccnc(N)c5c4)ccc32)C1 [Compound 364c, (R)-2-(2-((5-(1-aminoisoquinolin-7-yl)-1-(1-(isobutoxycarbonyl)pyrrolidin-3-yl)-1H-indazol-3-yl)methoxy)phenyl)acetic acid]",< 1000 nM
4,"CC(C)COC(=O)N1CC[C@@H](n2nc(COc3ccccc3CC(=O)O)c3cc(-c4cccc5c(N)nccc45)ccc32)C1 [Compound 365b, (R)-2-(2-((5-(1-aminoisoquinolin-5-yl)-1-(1-(isobutoxycarbonyl)pyrrolidin-3-yl)-1H-indazol-3-yl)methoxy)phenyl)acetic acid]",< 1000 nM
